Measurements as given in patent publication US20150181873A1, “HERBICIDE-RESISTANT SUNFLOWER PLANTS, POLYNUCLEOTIDES ENCODING HERBICIDE=RESISTANT ACETO HYDROXY ACID SYNTHASE LARGE SUBUNIT PROTEINS, AND METHODS OF USE” (NIDERA S.A., priority 2013, published 2015).

Columns and labels:
[1] = test system: wild-type sunflower plants; experiment: Greenhouse imazamox spray test (FIG. 3/4), wild-type; type: in vivo, Helianthus annuus; details: imazamox 100 or 200 g ai/ha
Procedure: (§1) The S4897 and IMISUN-1 sunflower plants were spray-treated with imazamox at rate of 200 g ai/ha. […] The photograph was taken a few days after the plants were spray treated.
(§2) FIG. 4 is graphical illustration of herbicide injury in a greenhouse test following the spray treatment of IMISUN-1, wild-type, and S4897 sunflower plants with imazamox at either 100 (light columns) or 200 g ai/ha (dark columns). […] Herbicide injury was evaluated 17 days after the imazamox application.

[2] = test system: Conventional non-Clearfield sunflower variety; experiment: Greenhouse spray injury rating, conventional variety; type: in vivo, Helianthus annuus; details: scale 0-9
Source text: (§3) Sunflower lines S4897, Clearfield® sunflower varieties A, B, C and a conventional non-Clearfield variety were sprayed with three rates of imazamox (Raptor™), 100, 200 and 300 gm ai/ha plus 0.5% Sun It II and two rates of imazapyr (Arsenal™) 160 and 360 gm ai/ha plus 0.5% Sun It II when the plants were at the two to three leaf stage. Ratings were taken at 14 days after application (DAT) for injury. Injury was rated on a scale from 0 to 9 where 0=no injury to 9=dead plant. Twelve plants were sprayed per herbicide/rate treatment. Statistical analysis was conducted with STATGRAPHICS Plus 5.0 by using ANOVA and LSD procedures.
(§4) After plants were sprayed, it was realized that a height difference between S4897 and other sunflower varieties would have impacted the actual herbicide dose that was delivered. The spray boom height had been calibrated against S4897 and since the other varieties were taller and closer to the boom they would have received a greater dose of herbicide. Rates were recalibrated for the other varieties to determine the approximate dose they would have received. Assessments were made as presented in Table 2 since it was not possible to make a direct rate comparison due to the effect of the height. For example injury scores were compare for S4897 treated imazamox rate 100 gm ai/ha to the other varieties treated at 75 gm ai/ha. The treatment dose of 300 gm ai/ha for line S4897 was equivalent to the treatment of 200 gm ai/ha for the other varieties, which […].

[3] = test system: AHAS of S4897 sunflower (Ala107-to-Thr AHASL1); experiment: AHAS activity analysis of young leaves; type: biochemical, Helianthus annuus; details: S4897 vs Clearfield and conventional non-Clearfield variety; higher concentration of imazamox (FIG. 7)
Procedure: FIG. 7 is graphical illustration of a comparison of the inhibition of AHAS by Raptor for a non-Clearfield variety, a Clearfield variety and S4897 sunflower plants as described in Example 5.
FIG. 8 is graphical illustration of a comparison of the inhibition of AHAS by Glean for a non-Clearfield variety, a Clearfield variety and S4897 sunflower plants as described in Example 5.
AHAS activity analysis was also conducted by selecting actively growing young leaves from plants that were not sprayed with herbicide at approximately four weeks after planting.

[4] = test system: Clearfield sunflower variety C; experiment: Greenhouse spray injury rating, Clearfield variety C; type: in vivo, Helianthus annuus; details: scale 0-9
Source text: as §3, §4

Sunflower line S4897 = experiment: Greenhouse spray injury rating, line S4897; type: in vivo, Helianthus annuus
Source text: as §3, §4

[5] = test system: Clearfield sunflower variety A; experiment: Greenhouse spray injury rating, Clearfield variety A; type: in vivo, Helianthus annuus
Source text: as §3, §4

S4897 sunflower plants = experiment: Greenhouse imazamox spray test (FIG. 3/4), S4897; type: in vivo, Helianthus annuus; details: S4897 vs IMISUN-1 and wild-type; imazamox 100 and 200 g ai/ha; 17 days after application
Procedure: as §1, §2

[6] = test system: Clearfield sunflower variety B; experiment: Greenhouse spray injury rating, Clearfield variety B; type: in vivo, Helianthus annuus; details: scale 0-9
Source text: as §3, §4

S4897 plants = experiment: Field trial of resistance to imazapic; type: in vivo, Helianthus annuus; details: S4897 vs IMISUN-1 (Ala190-to-Val); field trials in Argentina; no data presented
Procedure: In field trials in Argentina, S4897 plants were tested for resistance to imazapic. […] This trial had single row plots and was treated on a windy day, so the actual herbicide dose reaching the plants was likely less than was applied.

[7] = imazamox 300 gm ai/ha, scale 0-9

With `COCc1cnc(C2=NC(C)(C(C)C)C(=O)N2)c(C(=O)O)c1` (stereo not shown) [Imazamox, imazamox] the “survival following spray treatment” value [1] was “did not survive”, the “Injury at 14 DAT” value ([2]; imazamox 75 gm ai/ha (100/75)) was 7.2 days and the “Injury at 14 DAT” value ([2]; imazamox 150 gm ai/ha) was 8.2 days. The “Injury at 14 DAT” value ([2]; imazamox 300 gm ai/ha) was 8.7 e, the “inhibition of AHAS activity” value [3] was “less inhibition” and the “Injury at 14 DAT” value ([4]; imazamox 75 gm ai/ha (100/75)) was 1.8 b. For the same compound, the “Injury at 14 DAT” value ([4]; imazamox 150 gm ai/ha) was 2.9 b, the “Injury at 14 DAT” value ([4]; imazamox 300 gm ai/ha) was 4.6 b and the “Injury at 14 DAT” value (Sunflower line S4897; imazamox 100 gm ai/ha (100/75), scale 0=no injury to 9=dead plant) was 0.5 a. For the same compound, the “Injury at 14 DAT” value (Sunflower line S4897; imazamox 200 gm ai/ha (column 200/150), scale 0-9) was 0.8 a, the “Injury at 14 DAT” value (Sunflower line S4897; imazamox 200 gm ai/ha (column 200/150), scale 0-9, listed as imazamox) was “little to no injury” and the “Injury at 14 DAT” value (Sunflower line S4897; [7]) was 0.8 a. The “Injury at 14 DAT” value (Sunflower line S4897; imazamox 300 gm ai/ha, scale 0-9, listed as imazamox) was “very little injury”, the “Injury at 14 DAT” value ([5]; imazamox 75 gm ai/ha (100/75), scale 0-9) was 4.3 c and the “Injury at 14 DAT” value ([5]; imazamox 150 gm ai/ha (column 200/150), scale 0-9) was 4.6 c. For the same compound, the “Injury at 14 DAT” value ([5]; imazamox 150 gm ai/ha (column 200/150), scale 0-9, listed as imazamox) was “significantly in juried and had stopped growing”, the “Injury at 14 DAT” value [5, 7] was 6.5 days and the “herbicide injury / resistance or tolerance” value (S4897 sunflower plants) was “significantly greater resistance or tolerance”. The “Injury at 14 DAT” value ([6]; imazamox 75 gm ai/ha (100/75)) was 1.9 b, the “Injury at 14 DAT” value ([6]; imazamox 150 gm ai/ha) was 4.8 c and the “Injury at 14 DAT” value ([6]; imazamox 300 gm ai/ha) was 5.3 c.

`Cc1cnc(C2=NC(=O)C(C)(C(C)C)N2)c(C(=O)O)c1` (stereo not shown) [imazapic] was tested, and the resistance to imazapic (S4897 plants) was “clearly superior”.
